According to patent publication US20200306210A1 (ZOGENIX INTERNATIONAL LIMITED, priority 2017, published 2020):
Values joined by “and” are separate entries in the source; they are usually repeats but may differ in a detail not shown here. Identical values can stand only once. Counter-ions that a name gives are not always drawn.

Experiments:
Assay type in all cases: in vivo, Human
[1] = system: children and young adults with Dravet syndrome; experiment: Study 1: Clinical Global Impression of Improvement (CGI-I)
Procedure: CGI-S and CGI-I ratings were made by clinical investigators and parent/caregivers in a series of phase III trials of fenfluramine. CGI changes were measured in two randomized, controlled trials with results reported herein. Study 1 was conducted as described in Example 1 and CGI ratings were made according to a set schedule of visits made to the clinic. Tables of results and bar graphs of the statistical analyses of CGI ratings for Study 1 at visit twelve (day 113) are provided in FIGS. 1-4. […] Similar results were obtained with investigator CGI-I rating.
(§1) In Study 1, subjects were assessed using Clinical Global Impression (CGI), allowing the parent/caregiver and principal investigator to assess improvement, as well as the Quality of Life in Childhood Epilepsy (QOLCE) Scale and the Pediatric Quality of Life Inventory (PedsQL) to measure changes in the quality of life of the subject. Comparisons between treatment groups were made using Wilcoxon rank sum tests.
The CGI scale measures the change in the subject's clinical status from a specific point in time, i.e., the Baseline Period (and also referred to as the CGI-S, an initial ranking of severity). The CGI rating scale permits a global evaluation of the subject's improvement over time.

[2] = system: children and young adults with Dravet syndrome; experiment: Study 1: quality of life (PedsQL, QOLCE); conditions: increase indicates improvement
Procedure: as §1
In 2003, Varni and colleagues published a study intended to determine the feasibility, reliability, and validity of the 23-item PEDSQL 4.0 (Pediatric Quality of Life Inventory) Generic Core Scales as a measure of pediatric population health for children and adolescents. The instrument was given to over 10,000 families with children age 2-16 in the state of California. From Varni, et al., parent reported changes in each of the scales and summary scores that could be considered clinically meaningful include a change of >1 SEM or Standard Error of Measurement as a cut point.

[3] = system: children and young adults with Dravet syndrome; experiment: Study 1: safety (TEAEs, body weight, echocardiography)
Procedure: The incidence of treatment-emergent adverse events (TEAEs) was monitored continuously during the study. TEAEs were graded by the investigator as mild, moderate, or severe, and related or not related to study medication. Vital signs, height, weight, and clinical laboratory evaluations were performed at each study visit. The Behavior Rating Inventory of Executive Function (BRIEF) was administered at baseline and periodically during the treatment period to assess for any effects of treatment on cognitive function. Doppler echocardiography (ECHOs) and 12-lead electrocardiography (ECGs) were performed during the screening/baseline period, after 6 weeks of treatment, and after 14 weeks of treatment at the end of the maintenance period. The ECGs and ECHOs were evaluated by two independent cardiologists who were blind to treatment randomization. In the event of disagreement, a third cardiologist arbitrated the decision.
All subjects received ZX008 or matching placebo for up to approximately 16 weeks (Titration Period=2 weeks; Maintenance Period=12 weeks; Taper/Transition Period=2 weeks) in Study 1. After completion of the Maintenance Period, eligible subjects could enroll in an open-label extension (OLE) study, after completion of the transition. […] Follow-up cardiovascular safety assessments, including ECG and ECHO, were performed 3 to 6 months following the last dose of study medication.
In the ZX008 0.2 mg/kg/day group, 5 (12.8%) subjects had weight losses ranging from 8.4% to 21.9% of body weight; the one subject with a 21.9% loss was under the guidance of a nutritionist to manage their weight during the trial, and another subject with a 15.3% loss had been diagnosed with diabetes mellitus shortly before enrolling in the study and was also being managed to lose weight. One subject in the 0.2 mg/kg/day group gained 10.3% body weight during the study. In the ZX008 0.8 mg/kg/day group, 8 (20.0%) subjects lost weight, ranging from 7.2% to 11.4% of baseline body weight. One subject in the ZX008 0.8 mg/kg/day group discontinued citing decreased appetite and weight loss, among other events. The weight loss, however, amounted to less than 1 kg. There were no deaths in the study.

## CCNC(C)Cc1cccc(C(F)(F)F)c1 (centres unmarked) [ZX008, fenfluramine hydrochloride]
[1]; 0.2 mg/kg/day, n = 39
  CGI-I Investigator rating 'very much improved' or 'much improved', %: (41.0%)
  CGI-I Parent/caregiver rating 'very much improved' or 'much improved', %: (41.0%)
[1]; 0.8 mg/kg/day, n = 40
  CGI-I Investigator rating 'very much improved' or 'much improved', %: (55.0%)
  CGI-I Parent/caregiver rating 'very much improved' or 'much improved', %: (55.0%)
[2]; 0.2 mg/kg/day
  Pediatric Quality of Life Inventory (Peds QL) Total Score, change from baseline, mean ± SD: 6.8 ± 11.3
[2]; 0.8 mg/kg/day
  Pediatric Quality of Life Inventory (Peds QL) Total Score, change from baseline, mean ± SD: 5.9 ± 15.1
[3]
  Deaths in the study: no deaths
  Tolerability: generally well tolerated
[3]; 0.2 mg/kg/day
  At least one echocardiographic finding with trace mitral and/or trace aortic regurgitation, % of subjects: 17.9%
  At least one echocardiographic finding with trace mitral and/or trace aortic regurgitation, number of subjects: 7
  Body weight gained during the study, one subject: 10.3%
  Serious adverse events, % of subjects: 10.3%
  Serious adverse events, number of subjects: 4
  Status epilepticus (serious adverse event), % of subjects: 2.6%
  Status epilepticus (serious adverse event), number of subjects: 1
  Subjects with weight loss (change from baseline ≥7%), number: 5
  TEAEs mild to moderate in severity, % of patients among those with TEAEs: 94.6%
  TEAEs mild to moderate in severity, number of patients among those with TEAEs: 35
[3]; 0.2 mg/kg/day, hydrochloride
  Subjects with weight loss (change from baseline ≥7%), %: 12.8% and 13%
[3]; 0.8 mg/kg/day
  At least one echocardiographic finding with trace mitral and/or trace aortic regurgitation, % of subjects: 22.5%
  At least one echocardiographic finding with trace mitral and/or trace aortic regurgitation, number of subjects: 9
  Serious adverse events, % of subjects: 12.5%
  Serious adverse events, number of subjects: 5
  Status epilepticus (serious adverse event), % of subjects: 5%
  Status epilepticus (serious adverse event), number of subjects: 2
  Subjects with weight loss (change from baseline ≥7%), number: 8
  TEAEs mild to moderate in severity, % of patients among those with TEAEs: 92.1%
  TEAEs mild to moderate in severity, number of patients among those with TEAEs: 35
[3]; 0.8 mg/kg/day, hydrochloride
  Subjects with weight loss (change from baseline ≥7%), %: 20%
[3]; ZX008-treated patients
  Most common non-cardiovascular adverse events: decreased appetite, diarrhea, nasopharyngitis, lethargy, somnolence, and pyrexia
[3]; each ZX008 dose group (0.2 and 0.8 mg/kg/day)
  TEAEs reported, % of subjects: 95%
[3]; ≤30 mg/day, 14-week treatment and 2-week transition, hydrochloride
  Cases of cardiac valvulopathy or pulmonary hypertension: no cases
